Among the data in US20100222322A1, “Non-Nucleoside Reverse Transcriptase Inhibitors” (MERCK & CO., INC., priority 2005, published 2010) are IC50 and IC95 values, retold here.

Assay [1] addresses T1, mutant HIV reverse transcriptase with the K103N mutation (Human immunodeficiency virus type 1 group M subtype B, UniProt P04585, K690N).
T1 construct: mutations that occur in the reverse transcriptase segment of the pol gene; made in house
The assay is described as follows: Analogous RT inhibition assay, K103N mutant. The format is biochemical. How it is done:
(§1) 100 μL reaction mixtures were initiated with a combination of primer-template substrate (10 nM final concentration) and dNTPs (0.6 μM dNTPs, 0.75 μM [^3H]-dGTP). The heterodimeric nucleic acid substrate was generated by annealing the DNA primer pD500 (described in Shaw-Reid et al., J. Biol. Chem., 278: 2777-2780; obtained from Integrated DNA Technologies) to t500, a 500 nucleotide RNA template created by in vitro transcription (see Shaw-Reid et al., J. Biol. Chem., 278: 2777-2780). After 1 hour incubation at 37° C., reactions were quenched by 10 μL streptavidin scintillation proximity assay beads (10 mg/mL, from Amersham Biosciences) in 0.5 M EDTA, pH 8. Microtiter plates were incubated an additional 10 minutes at 37° C. prior to quantification via Topcount (Packard).
(§2) Analogous assays were conducted substituting mutant HIV strains to determine the […] inhibition of compounds of the present invention against mutant HIV reverse transcriptase. In one strain the reverse transcriptase has the Y181C mutation and in the other strain the reverse transcriptase has the K103N mutation. The mutations were generated with the […] site-directed mutagenesis kit (Stratagene). […] The compounds set forth in the other Examples were not tested in the Y181C assay. […] The compounds set forth in the other Examples were not tested in the K103N assay.

Assay [2] has as its target T2, mutant HIV reverse transcriptase with the Y181C mutation (Human immunodeficiency virus type 1 group M subtype B, UniProt P04585, Y768C).
T2 construct: mutations that occur in the reverse transcriptase segment of the pol gene; made in house
The experiment in a line: Analogous RT inhibition assay, Y181C mutant. It counts as biochemical. How it is done: as §1, §2

Assay [3] deals with HIV replication in T-lymphoid cells. The experiment in a line: Spread assay: inhibition of acute HIV infection of T-lymphoid cells. It counts as cell-based. To be noted: read-out: IC95, spread assay (inhibition of HIV replication). On the procedure:
An assay for the inhibition of acute HIV infection of T-lymphoid cells (alternatively referred to herein as the “spread assay”) was conducted in accordance with Vacca, J. P. et al., Proc. Natl. Acad. Sci. USA 1994, 91: 4096. […] The compounds of Examples 26, 29, 30, 33-35 and 62 were tested in the spread assay up to 10 micromolar, but specific IC95 values were not obtained; i.e., the IC95 values were greater than 10 micromolar. The compounds of Examples 47 and 61 were not tested.

Where [4] appears, read: Human immunodeficiency virus 1, acute HIV infection of T-lymphoid cells, tested up to 10 micromolar.

Where two headings read alike, the source gives them in different places.

As a reminder, the IC50 is the point on the concentration scale where inhibition reaches its midpoint. As usually defined, the IC95 is the point of the concentration-response curve where the effect stands at 95%.

Consider `O=C(NCCO)c1[nH]c2ccc(Br)cc2c1S(=O)(=O)N1CCCC1` [Example 32, 5-bromo-N-(2-hydroxyethyl)-3-(pyrrolidin-1-ylsulfonyl)-1H-indole-2-carboxamide], for which the IC50 in assay [1] was 1 to 20 µM; in assay [2], < 1 µM. The IC95 in assay [3] (Human immunodeficiency virus 1, T-lymphoid) was < 1 µM.

Regarding `N#Cc1ccc2[nH]c(C(N)=O)c(S(=O)(=O)N3CCCC3)c2c1` [Example 68, 5-Cyano-3-(pyrrolidin-1-ylsulfonyl)-1H-indole-2-carboxamide], the IC50 was 1 to 20 µM in assay [1] (RT with K103N mutation, tested up to 20 micromolar, read-out: IC50, K103N mutant assay) and > 20 µM in assay [2] (RT with Y181C mutation, tested up to 20 micromolar, read-out: IC50, Y181C mutant assay). Further, the IC95 in assay [3] (setting [4]) was < 1 µM.

With `CON(C)S(=O)(=O)c1c(C(N)=O)[nH]c2ccc(Br)cc12` [Example 12, 5-bromo-3-{[methoxy(methyl)amino]sulfonyl}-1H-indole-2-carboxamide], the half-maximal inhibitory concentration (IC50) in assay [1] and in assay [2] was > 20 µM each time. Moreover, in assay [3] (setting [4]), the concentration for an effect of 95% (IC95) is < 1 µM.

In the case of `NC(=O)c1[nH]c2ccc(Br)cc2c1S(=O)(=O)N1CC=CC1` [Example 10, 5-bromo-3-(2,5-dihydro-1H-pyrrol-1-ylsulfonyl)-1H-indole-2-carboxamide], the IC50 in assay [1] and in assay [2] was < 1 µM in each case. The concentration for an effect of 95% (IC95) in assay [3] (setting [4]) is < 1 µM.
